In PubChem BioAssay AID328 (DTP/NCI, 2004):
Values joined by “and” are separate entries in the source; they are usually repeats but may differ in a detail not shown here. Equal values may be shown once. Inconclusive results and toxic doses are left out.

Tested on: BDF1 mice, P388 leukemia ip, median survival T/C
Test: NCI In Vivo Anticancer Drug Screen. Data for tumor model P388 Leukemia (intraperitoneal) in B6D2F1 (BDF1) mice
Details: endpoint: median survival time, higher = longer survival
How it was run: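 In tumour-bearing mice, survival after compound treatment is set against the vehicle group and given as a quotient.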

[1] = dose: 50.0 mg/kg/injection, schedule: Q01DX009 (ip), vehicle: saline with Tween-80
[2] = dose: 100.0 mg/kg/injection, schedule: Q01DX009 (ip), vehicle: saline with Tween-80
[3] = dose: 200.0 mg/kg/injection, schedule: Q01DX009 (ip), vehicle: saline with Tween-80
[4] = dose: 100.0 mg/kg/injection, schedule: Q01DX001 (ip), vehicle: saline with Tween-80
[5] = dose: 200.0 mg/kg/injection, schedule: Q01DX001 (ip), vehicle: saline with Tween-80
[6] = dose: 400.0 mg/kg/injection, schedule: Q01DX001 (ip), vehicle: saline with Tween-80
[7] = dose: 25.0 mg/kg/injection, schedule: Q01DX009 (ip), vehicle: saline
[8] = dose: 50.0 mg/kg/injection, schedule: Q01DX009 (ip), vehicle: saline
[9] = dose: 100.0 mg/kg/injection, schedule: Q04DX003 (ip), vehicle: saline with Tween-80
[10] = dose: 400.0 mg/kg/injection, schedule: Q01DX009 (ip), vehicle: saline with Tween-80

CCCC1CC[N-]CC1.CCCC1CC[N-]CC1.CCCC1CC[N-]CC1.CCCC1CC[N-]CC1.[Cl][Rh][Cl]
T/C (dose: 0.35 mg/kg/injection, schedule: Q01DX009 (ip), vehicle: saline): 122 % of control | T/C (dose: 0.53 mg/kg/injection, schedule: Q01DX009 (ip), vehicle: saline): 123 % of control | T/C (dose: 0.8 mg/kg/injection, schedule: Q01DX009 (ip), vehicle: saline): 119 % of control | T/C (dose: 3.0 mg/kg/injection, schedule: Q01DX009 (ip), vehicle: Klucel (hydroxypropylcellulose) (HPC)): 86 % of control

CC(=O)OC1=C2OC(=O)C3(C2C=CC=C1)C1C=CC=CC13 (stereo not drawn)
T/C [1]: 116 % of control | T/C [2]: 116 % of control | T/C [3]: 120 % of control

O=[N+]([O-])c1ccc(Nc2ccncc2)cc1
T/C (dose: 100.0 mg/kg/injection, schedule: Q04DX003 (ip), vehicle: saline): 104 % of control | T/C (dose: 200.0 mg/kg/injection, schedule: Q04DX003 (ip), vehicle: saline): 95 % of control | T/C (dose: 400.0 mg/kg/injection, schedule: Q04DX003 (ip), vehicle: saline): 104 % of control

O=C(CC(O)(C(F)(F)Cl)C(F)(F)Cl)c1cccs1
T/C [4]: 95 % of control | T/C [5]: 100 % of control | T/C [6]: 100 % of control

CCCCCCCC(O)CCCCCCC
T/C (dose: 100.0 mg/kg/injection, schedule: Q01DX009 (ip), vehicle: other): 115 % of control | T/C (dose: 200.0 mg/kg/injection, schedule: Q01DX009 (ip), vehicle: other): 110 % of control | T/C (dose: 400.0 mg/kg/injection, schedule: Q01DX009 (ip), vehicle: other): 100 % of control

Clc1ccc(C2(Cn3ccnc3)OCC(COc3ccc(-c4ccccc4)cc3)O2)c(Cl)c1 (stereo not drawn)
T/C [1]: 108 % of control | T/C [2]: 101 % of control | T/C [3]: 99 % of control

Cn1c(O)c(C=N)c(=O)n(C)c1=O
T/C (dose: 12.0 mg/kg/injection, schedule: Q01DX009 (ip), vehicle: saline): 118 % of control | T/C [7]: 109 % of control | T/C (dose: 25.0 mg/kg/injection, schedule: Q04DX003 (ip), vehicle: saline): 92 % of control | T/C [8]: 100 % of control | T/C (dose: 50.0 mg/kg/injection, schedule: Q04DX003 (ip), vehicle: saline): 100 % of control

c1ccc(CC2NCCc3ccccc32)cc1 (stereo not drawn)
T/C (dose: 25.0 mg/kg/injection, schedule: Q01DX009 (ip), vehicle: saline with Tween-80): 96 % of control | T/C (dose: 25.0 mg/kg/injection, schedule: Q04DX003 (ip), vehicle: saline with Tween-80): 115 % of control | T/C [1]: 111 % of control | T/C (dose: 50.0 mg/kg/injection, schedule: Q04DX003 (ip), vehicle: saline with Tween-80): 105 % of control | T/C [2]: 107 % of control | T/C [9]: 105 % of control

OC(c1cc(-c2ccc(C(F)(F)F)cc2)nc(C(F)(F)F)c1)C1CCCCN1 (stereo not drawn)
T/C [1]: 108 % of control

C=C1C(=O)OC2CC3(C)CC(O)C(O)C(=C)C3CC12 (stereo not drawn)
T/C [7]: 104 % of control | T/C [8]: 104 % of control | T/C (dose: 100.0 mg/kg/injection, schedule: Q01DX009 (ip), vehicle: saline): 104 % of control

CCOc1cccc2c1C(=O)c1c(O)c3c(c(O)c1C2=O)C[C@@](O)(C(C)=O)C[C@@H]3OC1CC(N)C(O)C(C)O1 (stereo partly drawn)
T/C (dose: 6.25 mg/kg/injection, schedule: Q04DX003 (ip), vehicle: water): 123 % of control | T/C (dose: 50.0 mg/kg/injection, schedule: Q04DX003 (ip), vehicle: water): 108 % of control

O=C1OI(OI2OC(=O)c3ccccc32)c2ccccc21 (tested in a mixture with another compound)
T/C (dose: 50.0 mg/kg/injection, schedule: Q01DX001 (ip), vehicle: saline with Tween-80): 101 % of control | T/C [4]: 101 % of control and 103 % of control | T/C [5]: 108 % of control and 120 % of control | T/C [6]: 117 % of control and 124 % of control

CC1(C)CC(=O)C=C(NCc2ccccc2)C1
T/C (dose: 37.5 mg/kg/injection, schedule: Q01DX009 (ip), vehicle: Klucel (hydroxypropylcellulose) (HPC)): 100 % of control | T/C (dose: 75.0 mg/kg/injection, schedule: Q01DX009 (ip), vehicle: Klucel (hydroxypropylcellulose) (HPC)): 100 % of control | T/C (dose: 150.0 mg/kg/injection, schedule: Q01DX009 (ip), vehicle: Klucel (hydroxypropylcellulose) (HPC)): 100 % of control

COc1ccc(-c2cc(=O)c3cc(OC)c(OC)cc3o2)cc1OC
T/C (dose: 1.88 mg/kg/injection, schedule: Q01DX009 (ip), vehicle: saline): 94 % of control | T/C (dose: 3.75 mg/kg/injection, schedule: Q01DX009 (ip), vehicle: saline): 91 % of control

COc1ccc(N=C(c2ccccc2)c2ccccc2)cc1
T/C [2]: 91 % of control | T/C [9]: 92 % of control | T/C [3]: 108 % of control | T/C (dose: 200.0 mg/kg/injection, schedule: Q04DX003 (ip), vehicle: saline with Tween-80): 100 % of control | T/C [10]: 108 % of control | T/C (dose: 400.0 mg/kg/injection, schedule: Q04DX003 (ip), vehicle: saline with Tween-80): 96 % of control

N#Cc1c2c(c(O)[nH]c1=O)CCCC2
T/C [2]: 120 % of control | T/C [3]: 105 % of control | T/C [10]: 120 % of control

C=C1C(=O)OC2CC(C)C3C=CC(=O)C3(C)C(O)C12 (stereo not drawn)
T/C (dose: 5.0 mg/kg/injection, schedule: Q01DX009 (ip), vehicle: saline with Tween-80): 113 % of control | T/C (dose: 10.0 mg/kg/injection, schedule: Q01DX009 (ip), vehicle: saline with Tween-80): 112 % of control | T/C (dose: 20.0 mg/kg/injection, schedule: Q01DX009 (ip), vehicle: saline with Tween-80): 115 % of control

NC(=O)n1cccn1
T/C (dose: 30.0 mg/kg/injection, schedule: Q01DX010 (ip), vehicle: saline): 100 % of control | T/C (dose: 50.0 mg/kg/injection, schedule: Q01DX010 (ip), vehicle: other): 104 % of control | T/C (dose: 60.0 mg/kg/injection, schedule: Q01DX010 (ip), vehicle: saline): 100 % of control | T/C (dose: 100.0 mg/kg/injection, schedule: Q01DX010 (ip), vehicle: other): 100 % of control | T/C (dose: 120.0 mg/kg/injection, schedule: Q01DX010 (ip), vehicle: saline): 109 % of control | T/C (dose: 240.0 mg/kg/injection, schedule: Q01DX010 (ip), vehicle: saline): 122 % of control

CCc1cc2c(cc1C(=O)/C=C\C(=O)O)C(C)(C)CCC2(C)C
T/C (dose: 2.5 mg/kg/injection, schedule: Q01DX009 (ip), vehicle: Klucel (hydroxypropylcellulose) (HPC)): 102 % of control | T/C (dose: 5.0 mg/kg/injection, schedule: Q01DX009 (ip), vehicle: Klucel (hydroxypropylcellulose) (HPC)): 99 % of control | T/C (dose: 10.0 mg/kg/injection, schedule: Q01DX009 (ip), vehicle: Klucel (hydroxypropylcellulose) (HPC)): 100 % of control

COc1cc([C@@H]2c3cc4c(cc3[C@H](O)[C@H]3COC(=O)[C@@H]23)OCO4)cc(OC)c1OC
T/C (dose: 7.7 mg/kg/injection, schedule: Q01DX010 (ip), vehicle: carboxymethylcellulose (CMC)): 115 % of control | T/C (dose: 12.0 mg/kg/injection, schedule: Q01DX009 (ip), vehicle: Klucel (hydroxypropylcellulose) (HPC)): 166 % of control | T/C (dose: 18.0 mg/kg/injection, schedule: Q01DX009 (ip), vehicle: Klucel (hydroxypropylcellulose) (HPC)): 185 % of control | T/C (dose: 27.0 mg/kg/injection, schedule: Q01DX009 (ip), vehicle: Klucel (hydroxypropylcellulose) (HPC)): 195 % of control | T/C (dose: 30.8 mg/kg/injection, schedule: Q01DX010 (ip), vehicle: carboxymethylcellulose (CMC)): 210 % of control | T/C (dose: 37.5 mg/kg/injection, schedule: Q04DX003 (ip), vehicle: saline sonified): 113 % of control | T/C (dose: 40.0 mg/kg/injection, schedule: Q01DX009 (ip), vehicle: Klucel (hydroxypropylcellulose) (HPC)): 233 % of control | T/C (dose: 60.0 mg/kg/injection, schedule: Q01DX009 (ip), vehicle: Klucel (hydroxypropylcellulose) (HPC)): 252 % of control | T/C (dose: 75.0 mg/kg/injection, schedule: Q04DX003 (ip), vehicle: saline sonified): 122 % of control | T/C (dose: 150.0 mg/kg/injection, schedule: Q04DX003 (ip), vehicle: saline sonified): 180 % of control and 204 % of control | T/C (dose: 225.0 mg/kg/injection, schedule: Q04DX003 (ip), vehicle: saline sonified): 300 % of control

O=C(NNC1CCN(Cc2ccccc2)CC1)c1ccccc1
T/C (dose: 1.1 mg/kg/injection, schedule: Q04DX003 (ip), vehicle: saline with Tween-80): 100 % of control | T/C (dose: 1.65 mg/kg/injection, schedule: Q04DX003 (ip), vehicle: saline with Tween-80): 100 % of control | T/C (dose: 2.5 mg/kg/injection, schedule: Q04DX003 (ip), vehicle: saline with Tween-80): 100 % of control | T/C (dose: 3.75 mg/kg/injection, schedule: Q04DX003 (ip), vehicle: saline with Tween-80): 100 % of control | T/C (dose: 5.0 mg/kg/injection, schedule: Q04DX003 (ip), vehicle: saline with Tween-80): 104 % of control | T/C (dose: 10.0 mg/kg/injection, schedule: Q04DX003 (ip), vehicle: saline with Tween-80): 104 % of control
